Reference: ChEMBL document CHEMBL1201862, “PubChem BioAssay data set” (2004)
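Cultured in 96-well plates, cells were exposed to test compound for 48 hours across five concentrations. GI50: concentration for 50% inhibition of growth.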 Calls of active or inactive are those of the source. Cut-off read from the data, not from the text of the source: active = GI50 up to about 1.1 µM and inactive = higher.

Columns and labels:
Assay in all cases: DTP human tumour cell line panel, 48 h
UACC-257 = test system: UACC-257
HOP-62 = test system: HOP-62
LXFL 529 = test system: LXFL 529
NCI-H522 = test system: NCI-H522
CCRF-CEM = test system: CCRF-CEM
SK-MEL-5 = test system: SK-MEL-5
XF498 = test system: XF498
KM-20L2 = test system: KM-20L2
HCT-15 = test system: HCT-15
HOP-92 = test system: HOP-92
U-251 = test system: U-251
NCI-H23 = test system: NCI-H23
TK-10 = test system: TK-10
RXF 631 = test system: RXF 631
SF-539 = test system: SF-539
A498 = test system: A498
RPMI-8226 = test system: RPMI-8226
SNB-19 = test system: SNB-19
HCT-116 = test system: HCT-116
M14 = test system: M14
OVCAR-8 = test system: OVCAR-8
DLD-1 = test system: DLD-1
OVCAR-3 = test system: OVCAR-3
SR = test system: SR
K562 = test system: K562
HCC 2998 = test system: HCC 2998
SNB-75 = test system: SNB-75
RXF 393 = test system: RXF 393
ACHN = test system: ACHN
SF-268 = test system: SF-268
IGROV-1 = test system: IGROV-1
SF-295 = test system: SF-295
SK-OV-3 = test system: SK-OV-3
SNB-78 = test system: SNB-78
NCI-H460 = test system: NCI-H460
HL-60 = test system: HL-60
DMS-273 = test system: DMS-273
786-0 = test system: 786-0
LOX IMVI = test system: LOX IMVI
CAKI-1 = test system: CAKI-1
OVCAR-4 = test system: OVCAR-4
SN12C = test system: SN12C
HT-29 = test system: HT-29
UACC-62 = test system: UACC-62
SW-620 = test system: SW-620
OVCAR-5 = test system: OVCAR-5
EKVX = test system: EKVX
SK-MEL-2 = test system: SK-MEL-2
A549 = test system: A549
SK-MEL-28 = test system: SK-MEL-28
M19-MEL = test system: M19-MEL
MOLT-4 = test system: MOLT-4
NCI-H226 = test system: NCI-H226
COLO 205 = test system: COLO 205
UO-31 = test system: UO-31
Malme-3M = test system: Malme-3M
DMS-114 = test system: DMS-114
HOP-18 = test system: HOP-18
KM12 = test system: KM12

In the case of COc1ccc2cc1Oc1ccc(cc1)C[C@@H]1c3cc(c(OC)cc3CCN1C)Oc1c(OC)c(OC)cc3c1[C@@H](C2)N(C)CC3 [PHAEANTHINE], the GI50 (UACC-257) was 14.9 µM (inactive), the GI50 (HOP-62) was 18.9 µM (inactive) and the GI50 (LXFL 529) was 18.7 µM (inactive). The GI50 (NCI-H522) was 15.7 µM (inactive), the GI50 (CCRF-CEM) was 14.3 µM (inactive) and the GI50 (SK-MEL-5) was 17.2 µM (inactive). For the same compound, the GI50 (XF498) was 6.98 µM (inactive), the GI50 (KM-20L2) was 6.56 µM (inactive) and the GI50 (HCT-15) was 15.6 µM. For the same compound, the GI50 (HOP-92) was 13.2 µM (inactive), the GI50 (U-251) was 13.2 µM (inactive) and the GI50 (NCI-H23) was 17.6 µM (inactive). The GI50 (TK-10) was 19.2 µM (inactive), the GI50 (RXF 631) was 14.1 µM (inactive) and the GI50 (SF-539) was 10.9 µM (inactive). For the same compound, the GI50 (A498) was 18.5 µM (inactive), the GI50 (RPMI-8226) was 15.6 µM (inactive) and the GI50 (SNB-19) was 16.9 µM (inactive). For the same compound, the GI50 (HCT-116) was 2.83 µM (inactive), the GI50 (M14) was 1.98 µM (inactive) and the GI50 (OVCAR-8) was 14.9 µM (inactive). The GI50 (DLD-1) was 24.8 µM (inactive), the GI50 (OVCAR-3) was 15.7 µM (inactive) and the GI50 (SR) was 15.9 µM (inactive). The GI50 (K562) was 2.11 µM (inactive), the GI50 (HCC 2998) was 15.8 µM (inactive) and the GI50 (SNB-75) was 9.73 µM (inactive). The GI50 (RXF 393) was 1.6 µM (inactive), the GI50 (ACHN) was 19.2 µM (inactive) and the GI50 (SF-268) was 25 µM (inactive). For the same compound, the GI50 (IGROV-1) was 19.8 µM (inactive), the GI50 (SF-295) was 17.5 µM (inactive) and the GI50 (SK-OV-3) was 24.7 µM (inactive). The GI50 (SNB-78) was 16.6 µM (inactive), the GI50 (NCI-H460) was 14.3 µM (inactive) and the GI50 (HL-60) was 16.7 µM (inactive). The GI50 (DMS-273) was 17.3 µM (inactive).
With COC(=O)C(=O)C(C#N)c1c(Cl)cccc1Cl (stereo unspecified) the GI50 (UACC-257) was > 100 µM (inactive), the GI50 (HOP-62) was > 100 µM (inactive) and the GI50 (786-0) was > 100 µM (inactive). The GI50 (LXFL 529) was > 100 µM (inactive), the GI50 (NCI-H522) was > 100 µM (inactive) and the GI50 (LOX IMVI) was > 100 µM (inactive). The GI50 (SK-MEL-5) was > 100 µM (inactive), the GI50 (XF498) was > 100 µM (inactive) and the GI50 (KM-20L2) was > 100 µM (inactive). The GI50 (HCT-15) was > 100 µM, the GI50 (CAKI-1) was > 100 µM (inactive) and the GI50 (OVCAR-4) was > 100 µM (inactive). For the same compound, the GI50 (HOP-92) was > 100 µM (inactive), the GI50 (NCI-H23) was > 100 µM (inactive) and the GI50 (TK-10) was > 100 µM (inactive). For the same compound, the GI50 (RXF 631) was > 100 µM (inactive), the GI50 (SF-539) was > 100 µM (inactive) and the GI50 (SN12C) was > 100 µM (inactive). For the same compound, the GI50 (HT-29) was > 100 µM (inactive), the GI50 (A498) was > 100 µM (inactive) and the GI50 (UACC-62) was > 100 µM (inactive). The GI50 (RPMI-8226) was > 100 µM (inactive), the GI50 (SW-620) was > 100 µM (inactive) and the GI50 (SNB-19) was > 100 µM (inactive). The GI50 (OVCAR-5) was > 100 µM (inactive), the GI50 (EKVX) was > 100 µM (inactive) and the GI50 (SK-MEL-2) was > 100 µM (inactive). The GI50 (A549) was > 100 µM (inactive), the GI50 (HCT-116) was > 100 µM (inactive) and the GI50 (SK-MEL-28) was > 100 µM (inactive). For the same compound, the GI50 (M14) was > 100 µM (inactive), the GI50 (OVCAR-8) was > 100 µM (inactive) and the GI50 (DLD-1) was > 100 µM (inactive). The GI50 (OVCAR-3) was > 100 µM (inactive), the GI50 (K562) was > 100 µM (inactive) and the GI50 (SNB-75) was > 100 µM (inactive). For the same compound, the GI50 (RXF 393) was > 100 µM (inactive), the GI50 (M19-MEL) was > 100 µM (inactive) and the GI50 (ACHN) was > 100 µM (inactive). The GI50 (SF-268) was > 100 µM (inactive), the GI50 (IGROV-1) was > 100 µM (inactive) and the GI50 (MOLT-4) was > 100 µM (inactive). The GI50 (SF-295) was > 100 µM (inactive), the GI50 (NCI-H226) was > 100 µM (inactive) and the GI50 (SK-OV-3) was > 100 µM (inactive). The GI50 (SNB-78) was > 100 µM (inactive), the GI50 (COLO 205) was > 100 µM (inactive) and the GI50 (UO-31) was > 100 µM (inactive). The GI50 (NCI-H460) was > 100 µM (inactive), the GI50 (HL-60) was > 100 µM (inactive) and the GI50 (Malme-3M) was > 100 µM (inactive). For the same compound, the GI50 (DMS-273) was > 100 µM (inactive) and the GI50 (DMS-114) was > 100 µM (inactive).
CCOC(=O)/C(=C\c1ccc(N(CCC#N)CCC#N)cc1)NC(=O)c1cc([N+](=O)[O-])ccc1Cl was tested, and the GI50 (UACC-257) was > 100 µM (inactive), the GI50 (HOP-62) was > 100 µM (inactive) and the GI50 (786-0) was > 100 µM (inactive). The GI50 (LXFL 529) was > 100 µM (inactive), the GI50 (NCI-H522) was 56.1 µM (inactive) and the GI50 (LOX IMVI) was 69 µM (inactive). The GI50 (CCRF-CEM) was 55.1 µM (inactive), the GI50 (SK-MEL-5) was > 100 µM (inactive) and the GI50 (KM-20L2) was > 100 µM (inactive). The GI50 (HCT-15) was > 100 µM, the GI50 (CAKI-1) was > 100 µM (inactive) and the GI50 (OVCAR-4) was > 100 µM (inactive). The GI50 (U-251) was > 100 µM (inactive), the GI50 (NCI-H23) was > 100 µM (inactive) and the GI50 (TK-10) was > 100 µM (inactive). The GI50 (RXF 631) was > 100 µM (inactive), the GI50 (SF-539) was > 100 µM (inactive) and the GI50 (SN12C) was > 100 µM (inactive). The GI50 (HT-29) was > 100 µM (inactive), the GI50 (A498) was > 100 µM (inactive) and the GI50 (UACC-62) was > 100 µM (inactive). The GI50 (RPMI-8226) was 56.6 µM (inactive), the GI50 (SW-620) was > 100 µM (inactive) and the GI50 (SNB-19) was > 100 µM (inactive). The GI50 (OVCAR-5) was > 100 µM (inactive), the GI50 (EKVX) was > 100 µM (inactive) and the GI50 (SK-MEL-2) was > 100 µM (inactive). For the same compound, the GI50 (A549) was > 100 µM (inactive), the GI50 (HCT-116) was > 100 µM (inactive) and the GI50 (SK-MEL-28) was > 100 µM (inactive). The GI50 (M14) was > 100 µM (inactive), the GI50 (OVCAR-8) was > 100 µM (inactive) and the GI50 (DLD-1) was > 100 µM (inactive). The GI50 (OVCAR-3) was 63.4 µM (inactive), the GI50 (HOP-18) was > 100 µM (inactive) and the GI50 (K562) was > 100 µM (inactive). The GI50 (HCC 2998) was > 100 µM (inactive), the GI50 (SNB-75) was > 100 µM (inactive) and the GI50 (RXF 393) was > 100 µM (inactive). For the same compound, the GI50 (M19-MEL) was > 100 µM (inactive), the GI50 (ACHN) was > 100 µM (inactive) and the GI50 (SF-268) was > 100 µM (inactive). For the same compound, the GI50 (IGROV-1) was > 100 µM (inactive), the GI50 (MOLT-4) was 72.6 µM (inactive) and the GI50 (SF-295) was > 100 µM (inactive). For the same compound, the GI50 (NCI-H226) was > 100 µM (inactive), the GI50 (SK-OV-3) was > 100 µM (inactive) and the GI50 (SNB-78) was > 100 µM (inactive). The GI50 (COLO 205) was > 100 µM (inactive), the GI50 (UO-31) was 69 µM (inactive) and the GI50 (NCI-H460) was > 100 µM (inactive). The GI50 (HL-60) was > 100 µM (inactive), the GI50 (Malme-3M) was > 100 µM (inactive) and the GI50 (KM12) was > 100 µM (inactive). The GI50 (DMS-273) was > 100 µM (inactive) and the GI50 (DMS-114) was > 100 µM (inactive).
